What was measured:
[1] = tested on: (+)-MK801 binding site of the ionotropic NMDA receptor; test: (3H)-(+)-MK801 receptor binding test on rat brain membrane homogenates; conditions: 10 μmol/l compound; ligand (3H)-(+)-MK801; rat brain membrane homogenate; triplicate batches
Protocol: The investigations for determining the affinity of the octahydrophenanthrene compounds of the general formula I according to the invention with the (+)-MK801 binding site of the ionotropic NMDA receptor was performed on brain membrane homogenates (homogenate of rat brain without the cerebellum, pons and medulla oblongata of male rats, Wistar strain, Charles River, WIGA GmbH, Sulzbach, Germany) as described in B. M. Baron et al., Journal of Pharmacology and Experimental Therapeutics, vol. 279, pages 62-68, 1996. The corresponding literature description is hereby introduced as a reference and is deemed to be part of the disclosure.
To this end, after separation of the cerebellum, pons and medulla oblongata, freshly prepared rat brains were disrupted for 1 minute with a Polytron homogeniser at 6,000 rpm in 50 mmol/l of tris/HCl (pH 7.7) with ice cooling and were then centrifuged for 15 min at 4° C. and 60,000 g. After decanting off and discarding the supernatant, resuspending the membrane pellet in 50 mmol/l of tris/HCl (pH 7.7) and disrupting it with a homogeniser at 2,000 rpm for 1 minute, centrifuging was again performed for 15 min at 4° C. and 60,000 g. The supernatant was again discarded and the membrane pellet was homogenised in 50 mmol/l of tris/HCl (pH 7.7) (2,000 rpm for 1 minute) and frozen in aliquots at −70° C.
Aliquots were in each case thawed for the receptor binding test and then centrifuged for 15 min at 4° C. and 60,000 g. After decanting off and discarding the supernatant, the membrane pellet was suspended for the binding test with binding test buffer and homogenised (2,000 rpm for 1 minute).
The buffer used for the binding test was a buffer of 5 mmol/l of tris/HCl (pH 7.7), supplemented with 30 μmol/l of glycine and 100 μmol/l of glutamic acid.
The radioactively labelled ligand used was […] of (^3H)-(+)-MK801 ((5R,10S)-(+)-5-methyl-10,11-dihydro-5H-dibenzo(a,d)cyclohepten-5,10-imine). The level of non-specific binding was determined in the presence of 10 μmol/l of non-radioactively labelled (+)-MK801.
were added in concentration series and the displacement of the radioactive ligand from its specific binding on the NMDA receptor was determined. Each of the triplicate batches was incubated for 40 minutes at 25° C. and then harvested by filtration through glass fibre filters (GF/B) in order to determine the radioactive ligand bound to the brain membrane homogenate. The radioactivity retained on the glass fibre filter disk was measured, after addition of scintillating liquid, in the β-counter.
The percentage inhibition of the specific binding of the ligand (^3H)-(+)-MK801 obtained from triplicate batches in the presence of in each case 10 μmol/l of the substituted octahydrophenanthrene compounds of the general formula I is stated in Table 1 and serves as a measure of the affinity of the compounds of the general formula I according to the invention with the (+)-MK801 binding site of the ionotropic NMDA receptor.

[2] = tested on: phenylquinone-induced writhing in mice; test: Writhing test in mice (phenylquinone-induced writhing); format: in vivo; conditions: male mice, phenylquinone i.p., writhing counted 5-20 minutes after phenylquinone
Protocol: The analgesic efficacy of the compounds according to the invention was investigated by phenylquinone-induced writhing in mice, modified after I.C. Hendershot, J. Forsaith in J. Pharmacol. Exp. There. 125, 237-240 (1959). Male mice weighing 25-30 g were used for this purpose. Groups of 10 animals per substance dose received, 1.0 minute after intravenous administration of the substances tested, 0.3 ml/mouse of a 0.02% aqueous solution of phenylquinone (phenylbenzoquinone, Sigma, Deisenhofen; solution prepared with addition of 5% of ethanol and stored in a water bath at 45° C.) administered intraperitoneally. The animals were then placed individually in observation cages. A push button counter was used to record the number of pain-induced stretching movements (writhing reactions=straightening of the torso with stretching of the rear extremities) for 5-20 minutes after phenylquinone administration. The control was provided by animals who received only physiological common salt solution with phenylquinone.
All the substances were tested at the standard dosage of 10 mg/kg. The percentage inhibition (% inhibition) of the writhing reactions by a substance was calculated according to the following formula: [formula]

Structure (SMILES) | Percentage inhibition of (+)-MK801 binding at 10 μM [1] [%] | Percentage inhibition of writhing reaction at 10 mg/kg i.v. [2] [%]
CN(C)CC1CCCC2c3ccccc3CCC12.Cl (stereo not drawn) [Compound 1, 8-Dimethylaminomethyl-4b,5,6,7,8,8a,9,10-octahydrophenanthrene hydrochloride] | 46 | 74
COc1ccc2c(c1)C1CCCC(CN(C)C)C1CC2.Cl (stereo not drawn) [Compound 2, 8-Dimethylaminomethyl-3-methoxy-4b,5,6,7,8,8a,9,10-octahydrophenanthrene hydrochloride] | 56 | 75
CN(C)CC1CCCC2c3cc(O)ccc3CCC12.Cl (stereo not drawn) [Compound 3, 8-Dimethylaminomethyl-4b,5,6,7,8,8a,9,10-octahydrophenanthren-3-ol hydrochloride] | 40 | 85
CN(C)CC1CCCC2c3ccc(F)cc3CCC12.Cl (stereo not drawn) [Compound 4, 8-Dimethylaminomethyl-2-fluoro-4b,5,6,7,8,8a,9,10-octahydrophenanthrene hydrochloride] | 36 | 
CN(C)CC1CCCC2c3cc(Cl)ccc3CCC12.Cl (stereo not drawn) [Compound 5, 8-Dimethylaminomethyl-3-chloro-4b,5,6,7,8,8a,9,10-octahydrophenanthrene hydrochloride] | 28 | 
CN(C)CC1CC(C(C)(C)C)CC2c3ccccc3CCC12.Cl (stereo not drawn) [Compound 6, 6-tert-Butyl-8-dimethylaminomethyl-4b,5,6,7,8,8a,9,10-octahydrophenanthrene hydrochloride] | 31 | 

Source: patent US20040162432A1, “Substituted octahydrophenanthrene compounds and use thereof as NMDA antagonists” (priority 2001, published 2004)
